Consider one substance from patent publication US20060052368A1 (priority 2002, published 2006).

For this assay, the target named is α7 nAChR subtype (Rattus norvegicus, UniProt Q05941). The assay is classed as binding. The note with it: read-out: KD of radioligand from saturation curves.
Sequence of α7 nAChR subtype (Q05941 23-502 limits assumed): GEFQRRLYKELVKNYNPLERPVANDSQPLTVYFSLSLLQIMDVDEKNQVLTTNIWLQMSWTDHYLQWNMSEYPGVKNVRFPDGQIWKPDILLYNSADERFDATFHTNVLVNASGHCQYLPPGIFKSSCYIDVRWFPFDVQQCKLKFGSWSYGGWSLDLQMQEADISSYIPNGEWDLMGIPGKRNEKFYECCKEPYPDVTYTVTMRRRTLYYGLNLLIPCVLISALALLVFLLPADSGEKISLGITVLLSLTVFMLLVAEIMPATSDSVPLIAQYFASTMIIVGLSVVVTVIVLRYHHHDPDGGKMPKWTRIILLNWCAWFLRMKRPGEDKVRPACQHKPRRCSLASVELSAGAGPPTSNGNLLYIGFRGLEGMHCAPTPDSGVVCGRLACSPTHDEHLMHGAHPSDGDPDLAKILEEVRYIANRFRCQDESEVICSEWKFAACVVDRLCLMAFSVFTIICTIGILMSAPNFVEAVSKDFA

On to ^125I-α-Bungarotoxin [^125I-α-BTX], for which the Kd was 1.67 nM.
